# Test results from PMC12951568, “Identifying Structural Factors Governing the Photodynamic Activity of Phthalocyanines” (Journal of Medicinal Chemistry, 2026).
# “And” between values parts separate entries of the source, which are not always exact repeats. Identical values can stand only once. Like-named read-outs stand apart in the source and are kept apart here.
# Experiments:
# [1] = cited from earlier work; for ΦΔ, quantum yield of singlet oxygen production of nonionized analogue: determined for nonionized analogues containing free carboxylic acid, ref number not given (footnote b)
# [2] = cited from earlier work; for ΦF, fluorescence quantum yield of nonionized analogue: determined for nonionized analogues containing free carboxylic acid, ref number not given (footnote b)
# [3] = biological target: bovine serum albumin (BSA) (Bos taurus, UniProt P02769); test: Interaction with bovine serum albumin (absorption and emission spectra in PBS); format: binding; details: 1 μM Pc in PBS, BSA 17.5, 35 and 100 μM
# [4] = Log P, partition between n-octanol and PBS; format: physicochemical; details: partition coefficient between 1-octanol and PBS
# Summary of the method: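 Sample from 100 μM stock added to equal volumes of n-octanol and PBS, vortexed 5 min at rt, centrifuged. Each layer diluted into DMF and emission spectra recorded; log P taken as log of octanol/PBS integrated fluorescence ratio, mean of triplicates.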
# [5] = system: HeLa (human cervical carcinoma); details: ref number not given, cited from earlier work
# [6] = Absorption and fluorescence emission spectra in DMF; format: physicochemical; details: in DMF
# Method: (§1) An absorption spectrum of 2.475 mL of solvent (water, DMF, or PBS) was taken (i.e., absorption spectrum of baseline); then, 25 μL of stock solution was added to reach the final concentration of 1 μM in the cuvette, and the absorption and emission spectra were taken. Baseline of the solvent was subtracted from the obtained absorption spectrum to get the final absorption spectrum of the sample.
# [7] = Fluorescence quantum yield, comparative method; format: physicochemical; details: in DMF; ZnPc as reference
# Summary of the method: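 ΦF determined by the comparative method against ZnPc (ΦF 0.32 in THF), using integrated emission area, absorbance at the excitation wavelength and solvent refractive index. Q-band absorbance kept below 0.05; estimated error ± 15%.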
# [8] = Quantum yield of singlet oxygen production, comparative method with DPBF scavenger; format: physicochemical; details: in DMF, ZnPc as reference
# Summary of the method: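 Dye added from 100 μM DMF stock (or DMF/water, water); irradiated under stirring with xenon lamp through water filter and OG530 cut-off (>523 nm). DPBF decay followed at 415 nm; ΦΔ from ln(A0/At) slopes versus reference, normalised to absorbed light summed over 523–850 nm; triplicate means, ±10% error.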
# [9] = system: MCF-7 (human breast adenocarcinoma); design: method as in number not printed in Table 2; details: 12 h incubation, Xe-lamp 15 min, λ > 570 nm, 11.2 J/cm^2; mean ± SD; determined previously under the same conditions at the same workplace and published; ref number not given; cited from earlier work
# [10] = Aggregation / monomerization in aqueous media (spectra in water and PBS); format: physicochemical; details: 1 μM
# Method: as §1
# [11] = system: SK-MEL-28 (human skin melanoma); test: Photodynamic activity (phototoxicity, neutral red uptake) on SK-MEL-28; format: cell-based; details: 12 h incubation, Xe-lamp 15 min, λ > 570 nm, 11.2 J/cm^2; mean ± SD; t.w. = this work
# [12] = system: HeLa (human cervical carcinoma); test: Photodynamic activity (phototoxicity, neutral red uptake) on HeLa; format: cell-based; details: HeLa; unsymmetrical anionic A1Zn, A2Zn vs A3Zn, A4Zn
# [13] = Fluorescence lifetime in DMF; format: physicochemical
# Description: 1 Photophysical Data of Investigated Derivatives in DMF ^a | column: τF1/ns; τF2/ns
# [14] = 12 h incubation, Xe-lamp 15 min, λ > 570 nm, 11.2 J/cm^2, mean ± SD, determined previously under the same conditions at the same workplace and published, read-out: EC50 (nM) HeLa
# bovine serum albumin (BSA), sequence (P02769 25-607): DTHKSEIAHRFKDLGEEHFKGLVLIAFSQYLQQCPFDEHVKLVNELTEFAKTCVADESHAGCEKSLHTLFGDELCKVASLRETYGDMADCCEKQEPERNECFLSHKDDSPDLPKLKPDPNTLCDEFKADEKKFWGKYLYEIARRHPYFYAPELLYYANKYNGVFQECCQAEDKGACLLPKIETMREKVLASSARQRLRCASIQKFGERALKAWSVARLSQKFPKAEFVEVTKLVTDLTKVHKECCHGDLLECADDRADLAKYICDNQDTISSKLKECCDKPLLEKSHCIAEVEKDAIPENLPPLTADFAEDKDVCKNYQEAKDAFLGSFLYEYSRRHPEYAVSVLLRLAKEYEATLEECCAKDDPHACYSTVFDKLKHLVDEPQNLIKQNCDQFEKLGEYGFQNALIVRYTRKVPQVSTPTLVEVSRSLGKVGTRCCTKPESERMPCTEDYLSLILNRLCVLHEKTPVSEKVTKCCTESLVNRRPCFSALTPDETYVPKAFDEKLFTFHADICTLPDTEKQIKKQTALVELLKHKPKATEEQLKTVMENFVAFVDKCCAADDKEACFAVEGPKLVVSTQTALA
Structure (SMILES),"ΦΔ, quantum yield of singlet oxygen production of nonionized analogue [1]","ΦF, fluorescence quantum yield of nonionized analogue [2]","ΦΔ of the reference standard ([1]; in DMF, ref number not given)","ΦF of the reference standard ([2]; in THF, ref number not given)",Interaction with BSA: disaggregation/monomerization and changes in absorption and fluorescence emission spectra [3],quenching of excited states upon BSA addition (decrease in Q-band maximum and fluorescence intensity) [3],Log P [4],"EC50 [5, 14] [nM]","ε, extinction coefficient [6]","λA, absorption maximum in the Q-band [6] [nm]","λF, fluorescence emission maximum [6] [nm]","ΦF, fluorescence quantum yield [7]","ΦΔ, quantum yield of singlet oxygen production [8]",EC50 [9] [nM],"EC50 ([5]; same irradiation conditions, previously published per Table 2, read-out: EC50 (HeLa)) [nM]",aggregation / monomeric state [10],EC50 [11] [nM],fold higher photodynamic activity vs symmetrical hydrophilic counterparts [12],"τF1, fluorescence lifetime (relative amplitude in brackets) [13]","τF2, fluorescence lifetime (relative amplitude in brackets) [13]"
O=C(O)c1cc(C(=O)O)cc(-c2cc3c(cc2-c2cc(C(=O)O)cc(C(=O)O)c2)C2=Nc4c5cc(-c6cc(C(=O)O)cc(C(=O)O)c6)c(-c6cc(C(=O)O)cc(C(=O)O)c6)cc5c5[n]4[Zn][n]4c(c6cc(-c7cc(C(=O)O)cc(C(=O)O)c7)c(-c7cc(C(=O)O)cc(C(=O)O)c7)cc6c4=NC4=NC(=N5)c5cc(-c6cc(C(=O)O)cc(C(=O)O)c6)c(-c6cc(C(=O)O)cc(C(=O)O)c6)cc54)=NC3=N2)c1 [A4Zn(COOH)],0.45,0.12,,,,,,,,,,,,,,,,,,
"[Zn+2].c1ccc2c(c1)-c1nc-2nc2[n-]c(nc3nc([n-]c4nc(n1)-c1ccccc1-4)-c1ccccc1-3)c1ccccc21 [ZnPc, unsubstituted zinc(II) phthalocyanine, reference compound]",,,0.56,0.32,,,,,,,,,,,,,,,,
O=C([O-])c1cc(Oc2cc3c(cc2Oc2cc(C(=O)[O-])cc(C(=O)[O-])c2)C2=Nc4c5cc(Oc6cc(C(=O)[O-])cc(C(=O)[O-])c6)c(Oc6cc(C(=O)[O-])cc(C(=O)[O-])c6)cc5c5[n]4[Zn][n]4c(c6cc(Oc7cc(C(=O)[O-])cc(C(=O)[O-])c7)c(Oc7cc(C(=O)[O-])cc(C(=O)[O-])c7)cc6c4=NC4=NC(=N5)c5cc(Oc6cc(C(=O)[O-])cc(C(=O)[O-])c6)c(Oc6cc(C(=O)[O-])cc(C(=O)[O-])c6)cc54)=NC3=N2)cc(C(=O)[O-])c1.[Na+].[Na+].[Na+].[Na+].[Na+].[Na+].[Na+].[Na+].[Na+].[Na+].[Na+].[Na+].[Na+].[Na+].[Na+].[Na+] [A3Zn],0.42,0.19,,,slight bathochromic shift in the Q-band accompanied by partial quenching of the excited states,negligible,–2.88,5160 ± 1030,172 640 M^–1cm^–1,677,688,0.03,0.24,3470 ± 670,,,,,,
O=C([O-])c1cc(C(=O)[O-])cc(-c2cc3c(cc2-c2cc(C(=O)[O-])cc(C(=O)[O-])c2)C2=Nc4c5cc(-c6cc(C(=O)[O-])cc(C(=O)[O-])c6)c(-c6cc(C(=O)[O-])cc(C(=O)[O-])c6)cc5c5[n]4[Zn][n]4c(c6cc(-c7cc(C(=O)[O-])cc(C(=O)[O-])c7)c(-c7cc(C(=O)[O-])cc(C(=O)[O-])c7)cc6c4=NC4=NC(=N5)c5cc(-c6cc(C(=O)[O-])cc(C(=O)[O-])c6)c(-c6cc(C(=O)[O-])cc(C(=O)[O-])c6)cc54)=NC3=N2)c1.[Na+].[Na+].[Na+].[Na+].[Na+].[Na+].[Na+].[Na+].[Na+].[Na+].[Na+].[Na+].[Na+].[Na+].[Na+].[Na+] [A4Zn],0.45 (0.45) ^b,0.12,,,slight bathochromic shift in the Q-band accompanied by partial quenching of the excited states,negligible,–3.32,,168 630 M^–1cm^–1,694,708,0.01,,5090 ± 1240,10300,monomeric in water,,,,
Cc1cc(Cn2cc[n+](C)c2)c(Oc2cc3c(cc2Oc2c(Cn4cc[n+](C)c4)cc(C)cc2Cn2cc[n+](C)c2)C2=Nc4c5ccccc5c5[n]4[Zn][n]4c(c6ccccc6c4=NC3=N2)=NC2=NC(=N5)c3ccccc32)c(Cn2cc[n+](C)c2)c1.[I-].[I-].[I-].[I-] [C3Zn],,,,,,,–0.84,48 ± 19,177 190 M^–1cm^–1,673,682,0.19,0.53,21 ± 8,,monomeric in DMF but are aggregated in PBS,40 ± 4,,,
O=C([O-])c1cc(C(=O)[O-])cc(-c2cc3c(cc2-c2cc(C(=O)[O-])cc(C(=O)[O-])c2)C2=Nc4c5ccccc5c5[n]4[Zn][n]4c(c6ccccc6c4=NC3=N2)=NC2=NC(=N5)c3ccccc32)c1.[Na+].[Na+].[Na+].[Na+] [A2Zn],,,,,partial,,–2.42,410 ± 156,152 090 M^–1cm^–1,677,688,0.02,0.22,584 ± 88,,aggregated in water,700 ± 50,25 and ~21,0.23 (16%) ns,2.66 (84%) ns
Cc1cc(Cn2cc[n+](C)c2)c(Oc2c3c(c(C)c(C)[n+]2C)C2=NC3=Nc3c4ccccc4c4[n]3[Zn][n]3c(c5ccccc5c3=N2)=NC2=NC(=N4)c3ccccc32)c(Cn2cc[n+](C)c2)c1.[I-].[I-].[I-] [C1Zn],,,,,,,0.53,27 ± 9,100 240 M^–1cm^–1,689,696,0.15,0.66,35 ± 2,,monomeric in DMF but are aggregated in PBS,22 ± 3,,,
O=C(O)c1cc(Oc2cc3c(cc2Oc2cc(C(=O)O)cc(C(=O)O)c2)C2=Nc4c5cc(Oc6cc(C(=O)O)cc(C(=O)O)c6)c(Oc6cc(C(=O)O)cc(C(=O)O)c6)cc5c5[n]4[Zn][n]4c(c6cc(Oc7cc(C(=O)O)cc(C(=O)O)c7)c(Oc7cc(C(=O)O)cc(C(=O)O)c7)cc6c4=NC4=NC(=N5)c5cc(Oc6cc(C(=O)O)cc(C(=O)O)c6)c(Oc6cc(C(=O)O)cc(C(=O)O)c6)cc54)=NC3=N2)cc(C(=O)O)c1 [A3Zn(COOH)],0.42,0.19,,,,,,,,,,,,,,,,,,
